Source: patent publication US12116358B2, “Substituted indoles and methods of use thereof” (EPIZYME, INC., priority 2018, dated 2024)
Where two headings read alike, the source gives them in different places.

Experiments:
SETD2(1434-1711) = target: T1, SETD2(1434-1711) (Homo sapiens, UniProt Q9BYW2); assay: SETD2 (1434-1711) assay; assay type: biochemical; details: read-out: SETD2 (1434-1711)
T1 construct: SETD2 (1434-1711) Assay; catalogue N/A
T1 sequence (Q9BYW2 1434-1711): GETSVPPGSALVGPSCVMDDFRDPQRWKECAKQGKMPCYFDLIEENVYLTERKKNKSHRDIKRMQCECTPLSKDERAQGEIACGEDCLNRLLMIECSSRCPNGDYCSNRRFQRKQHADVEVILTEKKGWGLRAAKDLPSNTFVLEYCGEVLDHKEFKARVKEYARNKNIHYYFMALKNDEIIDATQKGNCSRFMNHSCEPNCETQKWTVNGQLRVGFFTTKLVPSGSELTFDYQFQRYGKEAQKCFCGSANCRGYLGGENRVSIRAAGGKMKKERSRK

H3K36me3 in A549 cells = assay: In-Cell Western (ICW) assay of SETD2 inhibitors (A549 assay); assay type: cell-based, human; details: A549 cells, read-out: SETD2 A549
Outline: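 H3K36me3 In-Cell Western: cells exposed to compound for 3 days at 4,000 cells/well, 37° C. DRAQ5 (1:1000) marked cell number, with 700/800-channel Licor read-out.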

Row | Structure (SMILES) | IC50 (SETD2(1434-1711)) [nM] | IC50 (H3K36me3 in A549 cells; Homo sapiens) [nM] | IC50 (H3K36me3 in A549 cells) [nM]
1 | Cc1ccc(F)c2cc(C(=O)N[C@@H]3CCC[C@H](N4CCC5(CC4)CNC(=O)N5)C3)[nH]c12 [compound 940] | 20 | > 2000 | –
2 | Cc1ccc(F)c2cc(C(=O)N[C@@H]3CCC[C@@H](N4CCC5(CC4)CNC(=O)N5)C3)[nH]c12 [compound 941] | 1300 | > 2000 | –
3 | Cc1ccc(F)c2cc(C(=O)NC3CCCC(N4CCC(=O)N(C)CC4)C3)[nH]c12 (centres unmarked) [compound 944] | 30 | – | 100
4 | Cc1ccc(F)c2cc(C(=O)N[C@@H]3CCC[C@@H](N4CCC(=O)N(C)CC4)C3)[nH]c12 [compound 945] | 100 | – | > 2000
5 | CCNC(=O)N1CCN(C2CCCC(NC(=O)c3cc4c(F)ccc(C)c4[nH]3)C2)CC1 (centres unmarked) [compound 948] | 10 | – | 100
6 | CCNC(=O)N1CCN(C2CCCC(NC(=O)c3cc4c(F)ccc(C)c4[nH]3)C2)CC1 (centres unmarked) [compound 949] | 700 | – | > 2000
7 | CC(=O)N1CC2CCC(C1)N2C1CCCC(NC(=O)c2cc3c(F)ccc(C)c3[nH]2)C1 (centres unmarked) [compound 952] | 40 | – | 400
8 | CC(=O)N1CC2CCC(C1)N2[C@@H]1CCC[C@@H](NC(=O)c2cc3c(F)ccc(C)c3[nH]2)C1 [compound 953] | 3000 | > 2000 | –
9 | Cc1ccc(F)c2cc(C(=O)NC3CCCC(c4nnc(CN(C)C)o4)C3)[nH]c12 (centres unmarked) [compound 955] | 200 | – | 800
10 | Cc1ccc(F)c2cc(C(=O)NC3CCCC(N4CCC5(CC4)COC(=O)N5)C3)[nH]c12 (centres unmarked) [compound 963] | 20 | – | 600
11 | Cc1ccc(F)c2cc(C(=O)NC3CCCC(N4CCC5(CC4)COC(=O)N5)C3)[nH]c12 (centres unmarked) [compound 964] | 500 | – | > 2000
12 | Cc1ccc(F)c2cc(C(=O)NC3CCCC(N4CCC5(CCC(=O)N5CC(F)(F)F)CC4)C3)[nH]c12 (centres unmarked) [compound 965] | 20 | – | 200
13 | Cc1ccc(F)c2cc(C(=O)NC3CCCC(N4CCC5(CCC(=O)N5CC(F)(F)F)CC4)C3)[nH]c12 (centres unmarked) [compound 966] | 600 | – | > 2000
14 | Cc1ccc(F)c2cc(C(=O)NC3CCCC(N4CCN(C5CCOC5)C(=O)C4)C3)[nH]c12 (centres unmarked) [compound 973] | 40 | – | 200
15 | Cc1ccc(F)c2cc(C(=O)NC3CCCC(N4CCN(C5CCOC5)C(=O)C4)C3)[nH]c12 (centres unmarked) [compound 974] | 2600 | – | > 2000
16 | Cc1nnc(C2CCCC(NC(=O)c3cc4c(F)ccc(C)c4[nH]3)C2)o1 (centres unmarked) [compound 975] | 100 | – | 400
17 | Cc1nnc(C2CCCC(NC(=O)c3cc4c(F)ccc(C)c4[nH]3)C2)o1 (centres unmarked) [compound 976] | 6600 | – | > 2000
18 | Cc1ccc(F)c2cc(C(=O)NC3CCCC(N4CCN(C5CC5)C(=O)C4)C3)[nH]c12 (centres unmarked) [compound 977] | 20 | – | 200

Row | Structure (SMILES) | IC50 (SETD2(1434-1711)) [nM] | IC50 (H3K36me3 in A549 cells; Homo sapiens) [nM] | IC50 (H3K36me3 in A549 cells) [nM]
19 | Cc1ccc(F)c2cc(C(=O)NC3CCCC(N4CCN(C5CC5)C(=O)C4)C3)[nH]c12 (centres unmarked) [compound 978] | 2300 | – | > 2000
20 | Cc1ccc(F)c2cc(C(=O)NC3CCCC(N4CCCN(S(C)(=O)=O)CC4)C3)[nH]c12 (centres unmarked) [compound 981] | 30 | – | 600
21 | Cc1ccc(F)c2cc(C(=O)NC3CCCC(N4CCCN(S(C)(=O)=O)CC4)C3)[nH]c12 (centres unmarked) [compound 982] | 1000 | – | > 2000
22 | CC(=O)N1CCN(C2COCC(NC(=O)c3cc4c(F)ccc(C)c4[nH]3)C2)CC1 (centres unmarked) [compound 985] | 6600 | – | > 2000
23 | CC(=O)N1CCN(C2COCC(NC(=O)c3cc4c(F)ccc(C)c4[nH]3)C2)CC1 (centres unmarked) [compound 986] | 60 | – | 200
24 | CC(=O)N1CCN(C2COCC(NC(=O)c3cc4c(F)ccc(C)c4[nH]3)C2)CC1 (centres unmarked) [compound 987] | > 10000 | – | > 2000
25 | CC(=O)N1CCN(C2COCC(NC(=O)c3cc4c(F)ccc(C)c4[nH]3)C2)CC1 (centres unmarked) [compound 988] | 4100 | – | > 2000
26 | Cc1ccc(F)c2cc(C(=O)NC3CCCC(N4CCn5c(nnc5C(F)(F)F)C4)C3)[nH]c12 (centres unmarked) [compound 989] | 100 | – | 800
27 | Cc1ccc(F)c2cc(C(=O)N[C@@H]3CCC[C@@H](N4CCn5c(nnc5C(F)(F)F)C4)C3)[nH]c12 [compound 990] | 3200 | > 2000 | –
28 | Cc1ccc(F)c2cc(C(=O)N[C@@H]3CCC[C@H](N4CCn5cncc5C4)C3)[nH]c12 [compound 991] | 60 | 300 | –
29 | Cc1ccc(F)c2cc(C(=O)N[C@@H]3CCC[C@@H](N4CCn5cncc5C4)C3)[nH]c12 [compound 992] | 1900 | > 2000 | –
30 | Cc1ccc(F)c2cc(C(=O)N[C@@H]3CCC[C@H](N4CCn5c(cnc5C(F)(F)F)C4)C3)[nH]c12 [compound 993] | 40 | 200 | –
31 | Cc1ccc(F)c2cc(C(=O)N[C@@H]3CCC[C@@H](N4CCn5c(cnc5C(F)(F)F)C4)C3)[nH]c12 [compound 994] | 1800 | > 2000 | –
32 | Cc1ccc(F)c2cc(C(=O)NC3CCCC(N4CCN(C(=O)OC(C)C)CC4)C3)[nH]c12 (centres unmarked) [compound 997] | 10 | – | 80
33 | Cc1ccc(F)c2cc(C(=O)NC3CCCC(N4CCN(C(=O)OC(C)C)CC4)C3)[nH]c12 (centres unmarked) [compound 998] | 1500 | – | > 2000
34 | Cc1ccc(F)c2cc(C(=O)N[C@@H]3CCC[C@H](N4CCN(C(=O)OC5CCOCC5)CC4)C3)[nH]c12 [compound 999] | 10 | 60 | –
35 | Cc1ccc(F)c2cc(C(=O)NC3CCCC(N4CCN(C(=O)OC5CCOCC5)CC4)C3)[nH]c12 (centres unmarked) [compound 1000] | 1500 | – | > 2000

Next, values leading:

Row | IC50 (SETD2(1434-1711)) [nM] | IC50 (H3K36me3 in A549 cells; Homo sapiens) [nM] | IC50 (H3K36me3 in A549 cells) [nM] | Structure (SMILES)
36 | 20 | – | 100 | Cc1ccc(F)c2cc(C(=O)NC3CCCC(N4CCC(N(C)C(=O)C5COC5)C4)C3)[nH]c12 (centres unmarked) [compound 946]
37 | 5500 | – | > 2000 | Cc1ccc(F)c2cc(C(=O)NC3CCCC(N4CCC(N(C)C(=O)C5COC5)C4)C3)[nH]c12 (centres unmarked) [compound 947]
38 | 400 | – | > 2000 | CC(=O)N1CCC12CN(C1CCCC(NC(=O)c3cc4c(F)ccc(C)c4[nH]3)C1)C2 (centres unmarked) [compound 950]
39 | 7000 | – | > 2000 | CC(=O)N1CCC12CN(C1CCCC(NC(=O)c3cc4c(F)ccc(C)c4[nH]3)C1)C2 (centres unmarked) [compound 951]
40 | 100 | – | 700 | Cc1ccc(F)c2cc(C(=O)NC3CCCC(N4CCNCC4)C3)[nH]c12 (centres unmarked) [compound 956]
41 | 40 | – | 200 | Cc1ccc(F)c2cc(C(=O)NC3CCCC(N4CCC(N5CCOC5=O)C4)C3)[nH]c12 (centres unmarked) [compound 958]
42 | 2300 | – | > 2000 | Cc1ccc(F)c2cc(C(=O)NC3CCCC(N4CCC(N5CCOC5=O)C4)C3)[nH]c12 (centres unmarked) [compound 959]
43 | 20 | – | > 2000 | CC(=O)N(C)C1CN(C2CCCC(NC(=O)c3cc4c(F)ccc(C)c4[nH]3)C2)C1 (centres unmarked) [compound 960]
44 | 30 | – | 400 | CC(=O)N1CC2CCC1CN2C1CCCC(NC(=O)c2cc3c(F)ccc(C)c3[nH]2)C1 (centres unmarked) [compound 961]
45 | 800 | – | > 2000 | CC(=O)N1CC2CCC1CN2C1CCCC(NC(=O)c2cc3c(F)ccc(C)c3[nH]2)C1 (centres unmarked) [compound 962]
46 | 20 | – | 100 | CC(=O)N1CCN(C2CCCC(NC(=O)c3cc4c(F)ccc(C)c4[nH]3)C2)CC1C (centres unmarked) [compound 967]
47 | 1900 | – | > 2000 | CC(=O)N1CCN(C2CCCC(NC(=O)c3cc4c(F)ccc(C)c4[nH]3)C2)CC1C (centres unmarked) [compound 968]
48 | 4 | – | 100 | Cc1ccc(F)c2cc(C(=O)NC3CCCC(N4CCC(N(C)C(=O)C(C)C)C4)C3)[nH]c12 (centres unmarked) [compound 969]
49 | 5000 | – | > 2000 | Cc1ccc(F)c2cc(C(=O)NC3CCCC(N4CCC(N(C)C(=O)C(C)C)C4)C3)[nH]c12 (centres unmarked) [compound 970]
50 | 10 | – | 100 | Cc1ccc(F)c2cc(C(=O)NC3CCCC(N4CCC(N(C)C(=O)C5CC5)C4)C3)[nH]c12 (centres unmarked) [compound 971]
51 | 4900 | – | > 2000 | Cc1ccc(F)c2cc(C(=O)NC3CCCC(N4CCC(N(C)C(=O)C5CC5)C4)C3)[nH]c12 (centres unmarked) [compound 972]
52 | 60 | – | 500 | CC(=O)N1CCCN(C2CCCC(NC(=O)c3cc4c(F)ccc(C)c4[nH]3)C2)CC1 (centres unmarked) [compound 979]
53 | 900 | > 2000 | – | CC(=O)N1CCCN([C@@H]2CCC[C@@H](NC(=O)c3cc4c(F)ccc(C)c4[nH]3)C2)CC1 [compound 980]
54 | 20 | – | 100 | Cc1ccc(F)c2cc(C(=O)NC3CCCC(N4CCC(N(C)C(=O)CO)C4)C3)[nH]c12 (centres unmarked) [compound 983]
55 | 5300 | – | > 2000 | Cc1ccc(F)c2cc(C(=O)NC3CCCC(N4CCC(N(C)C(=O)CO)C4)C3)[nH]c12 (centres unmarked) [compound 984]
56 | 8 | – | 30 | Cc1ccc(F)c2cc(C(=O)NC3CCCC(N4CCC(N(C)C(=O)CO)C4)C3)[nH]c12 (centres unmarked) [compound 995]
57 | 800 | – | > 2000 | Cc1ccc(F)c2cc(C(=O)NC3CCCC(N4CCC(N(C)C(=O)CO)C4)C3)[nH]c12 (centres unmarked) [compound 996]
58 | 1200 | 1800 | – | Cc1ccc(F)c2cc(C(=O)N[C@@H]3CCC[C@H](N4CCC(N(C)C)C4=O)C3)[nH]c12 (some centres unmarked) [compound 1002]
